Data reported in patent US10710951B2, “Pharmaceutical composition containing verbenone derivative for treating or preventing neurodegenerative disease” (KOREA UNIVERSITY RESEARCH AND BUSINESS FOUNDATION, priority 2012, dated 2020).

Experiment: Oxygen radical absorbance capacity (ORAC) assay
Parameters: ORAC assay TE25 (trolox equivalents): dose or concentration left out as unconfirmed
Details: not given
Procedure: An ORAC assay was performed as disclosed in the literature (Huang, D. et al., J. Agric. Food Chem., 53, 1841-56, 2005).
AAPH (60 mM) and fluorescein (50 nM) were prepared in buffer (75 mM phosphate buffer, pH7.4) without a sample or a sample or a standard (Trolox). Each of the samples and the standard was suspended in a solution of 7% RMCD (randomly methylated beta-cyclodextrin) in 50% acetone. RMCD was used to increase the solubility of oil-soluble samples. Each sample was sufficiently mixed with fluorescein solution (66 nM, 190 μl) by shaking for 5 seconds. After incubation at 37° C. for 10 minutes, AAPH (500 mM, 30 μl) was quickly added to each sample, and a decrease in the fluorescence was measured using a fluorescence microplate reader (Ex=485 nm, Em=530 nm; SpectraMax GeminiEM, Molecular Devices, Sunnyvale, Calif.) at 37° C. at 5-min intervals for 9 hours. To quantify the activity of scavenging peroxyl radicals, AUC (area-under-the-curve) was calculated according to the following equation 2, and net AUC was calculated according to the following equation 3, and the TE (trolox equivalents) of each sample was calculated according to the following equation 4 based on a standard curve of net AUC plotted according to an increase in trolox concentration. AUC=(0.5+f1/f0+f2/f0+f3/f0+ . . . +fn−2/f0+fn−1/f0+fn/f0)×5, Equation 2
wherein f0 is the first fluorescence at 0 min and time I. Net AUC=AUCsample−AUCblank. Equation 3 TE(trolox equivalents) of each sample=[netAUCsample […]]/[net AUCtrolox […]]. Equation 4
The antioxidant activities of the verbenone derivatives of the present invention were measured by the following two different chemical reactions: (1) a single electron transfer-based assay that is a […] [DPPH] assay that measures a decrease in DPPH acting as a free radical generator and a termination probe; and (2) a hydrogen atom transfer assay that is an oxygen radical absorbance capacity [[…]] assay that measures the competitive reaction kinetics of a peroxyl radical generator (AAPH; 2,2′-azobis-(2-methylpropionamide)-dihydrochloride) and each sample acting as an antioxidant for oxidizable fluorescent probe (fluorescein).

SMILES | ORAC assay Net AUC
CC1(C)[C@@H]2C[C@H]1C(C=Cc1ccc(F)cc1)=CC2=O [Compound 4b, (1S,5R)-4-(4-fluorostyryl)-6,6-dimethylbicyclo[3.1.1]hept-3-en-2-one] | 26.15 ± 1.26
COc1ccc(C=CC2=CC(=O)[C@H]3C[C@@H]2C3(C)C)cc1 [Compound 4c, (1S,5R)-4-(4-methoxystyryl)-6,6-dimethylbicyclo[3.1.1]hept-3-en-2-one] | 38.06 ± 2.00
CC1(C)[C@@H]2C[C@H]1C(C=Cc1ccc(-c3ccccc3)cc1)=CC2=O [Compound 4d, (1S,5R)-4-(2-(biphenyl-4-yl)vinyl)-6,6-dimethylbicyclo[3.1.1]hept-3-en-2-one] | 26.75 ± 1.27
COc1ccc(C=CC2=CC(=O)[C@H]3C[C@@H]2C3(C)C)cc1OC [Compound 4f, (1S,5R)-4-(3,4-dimethoxystyryl)-6,6-dimethylbicyclo[3.1.1]hept-3-en-2-one] | 39.35 ± 1.67
COc1cc(C=CC2=CC(=O)[C@H]3C[C@@H]2C3(C)C)cc(OC)c1 [Compound 4g, (1S,5R)-4-(3,5-dimethoxystyryl)-6,6-dimethylbicyclo[3.1.1]hept-3-en-2-one] | 45.28 ± 0.62
COc1ccc(OC)c(C=CC2=CC(=O)[C@H]3C[C@@H]2C3(C)C)c1 [Compound 4h, (1S,5R)-4-(2,5-dimethoxystyryl)-6,6-dimethylbicyclo[3.1.1]hept-3-en-2-one] | 32.44 ± 1.54
COc1ccc(Br)cc1C=CC1=CC(=O)[C@H]2C[C@@H]1C2(C)C [Compound 4i, (1S,5R)-4-(5-bromo-2-methoxystyryl)-6,6-dimethylbicyclo[3.1.1]hept-3-en-2-one] | 32.96 ± 1.03
CC1(C)[C@@H]2C[C@H]1C(/C=C/c1cccnc1)=CC2=O [Compound 5b, (1S,5R)-6,6-dimethyl-4-((E)-2-(pyridin-3-yl)vinyl)bicyclo[3.1.1]hept-3-en-2-one] | 22.93 ± 0.61
CC1(C)[C@@H]2C[C@H]1C(/C=C/c1ccncc1)=CC2=O [Compound 5c] | 22.51 ± 0.34

Same assay, conditions: net AUC sample / net AUC trolox

SMILES | ORAC assay TE25 (trolox equivalents)
CC1(C)[C@@H]2C[C@H]1C(C=Cc1ccc(F)cc1)=CC2=O [Compound 4b, (1S,5R)-4-(4-fluorostyryl)-6,6-dimethylbicyclo[3.1.1]hept-3-en-2-one] | 0.62 ± 0.02
COc1ccc(C=CC2=CC(=O)[C@H]3C[C@@H]2C3(C)C)cc1 [Compound 4c, (1S,5R)-4-(4-methoxystyryl)-6,6-dimethylbicyclo[3.1.1]hept-3-en-2-one] | 0.79 ± 0.01
CC1(C)[C@@H]2C[C@H]1C(C=Cc1ccc(-c3ccccc3)cc1)=CC2=O [Compound 4d, (1S,5R)-4-(2-(biphenyl-4-yl)vinyl)-6,6-dimethylbicyclo[3.1.1]hept-3-en-2-one] | 0.56 ± 0.01
COc1ccc(C=CC2=CC(=O)[C@H]3C[C@@H]2C3(C)C)cc1OC [Compound 4f, (1S,5R)-4-(3,4-dimethoxystyryl)-6,6-dimethylbicyclo[3.1.1]hept-3-en-2-one] | 0.88 ± 0.04
COc1cc(C=CC2=CC(=O)[C@H]3C[C@@H]2C3(C)C)cc(OC)c1 [Compound 4g, (1S,5R)-4-(3,5-dimethoxystyryl)-6,6-dimethylbicyclo[3.1.1]hept-3-en-2-one] | 1.01 ± 0.01
COc1ccc(OC)c(C=CC2=CC(=O)[C@H]3C[C@@H]2C3(C)C)c1 [Compound 4h, (1S,5R)-4-(2,5-dimethoxystyryl)-6,6-dimethylbicyclo[3.1.1]hept-3-en-2-one] | 0.72 ± 0.03
COc1ccc(Br)cc1C=CC1=CC(=O)[C@H]2C[C@@H]1C2(C)C [Compound 4i, (1S,5R)-4-(5-bromo-2-methoxystyryl)-6,6-dimethylbicyclo[3.1.1]hept-3-en-2-one] | 0.73 ± 0.02
CC1(C)[C@@H]2C[C@H]1C(/C=C/c1cccnc1)=CC2=O [Compound 5b, (1S,5R)-6,6-dimethyl-4-((E)-2-(pyridin-3-yl)vinyl)bicyclo[3.1.1]hept-3-en-2-one] | 0.51 ± 0.01
CC1(C)[C@@H]2C[C@H]1C(/C=C/c1ccncc1)=CC2=O [Compound 5c] | 0.50 ± 0.01
